# Reference: patent US11572590B2, “Methods for evaluating tumor cell spheroids using 3D microfluidic cell culture device” (Dana-Farber Cancer Institute, Inc., priority 2017, dated 2023)
# Like-named read-outs stand apart in the source and are kept apart here.
# Columns and labels:
# Experiment in all cases: SelectScreen Kinase Profiling, single point inhibition and IC50 for off-target kinases
# Assay type in all cases: biochemical
# off-target kinases [1] = molecular target: T1, off-target kinases (Homo sapiens, UniProt P33981); details: TTK, LanthaScreen Binding
# T1 sequence (P33981 1-857): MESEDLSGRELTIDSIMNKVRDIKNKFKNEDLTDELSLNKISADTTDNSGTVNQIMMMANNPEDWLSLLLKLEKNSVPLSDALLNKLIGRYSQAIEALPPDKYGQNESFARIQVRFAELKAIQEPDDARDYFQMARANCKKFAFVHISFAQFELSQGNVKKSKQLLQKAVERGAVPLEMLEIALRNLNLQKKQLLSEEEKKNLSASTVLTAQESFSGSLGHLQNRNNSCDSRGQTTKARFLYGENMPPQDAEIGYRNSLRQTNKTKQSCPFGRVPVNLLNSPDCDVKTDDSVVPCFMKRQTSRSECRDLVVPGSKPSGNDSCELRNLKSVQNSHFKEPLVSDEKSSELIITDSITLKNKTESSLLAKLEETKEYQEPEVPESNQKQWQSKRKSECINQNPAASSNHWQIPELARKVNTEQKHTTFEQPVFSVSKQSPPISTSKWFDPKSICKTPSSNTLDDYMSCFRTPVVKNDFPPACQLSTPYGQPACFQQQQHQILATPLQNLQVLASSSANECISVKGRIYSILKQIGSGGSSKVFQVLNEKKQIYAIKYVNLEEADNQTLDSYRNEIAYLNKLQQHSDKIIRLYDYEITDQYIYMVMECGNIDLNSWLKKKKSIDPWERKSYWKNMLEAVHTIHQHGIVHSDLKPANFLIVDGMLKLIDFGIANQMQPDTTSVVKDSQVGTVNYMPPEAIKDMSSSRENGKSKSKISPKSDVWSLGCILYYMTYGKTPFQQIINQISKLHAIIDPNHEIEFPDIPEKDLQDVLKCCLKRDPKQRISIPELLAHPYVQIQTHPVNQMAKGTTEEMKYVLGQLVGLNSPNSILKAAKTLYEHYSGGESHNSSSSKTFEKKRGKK
# off-target kinases [2] = molecular target: off-target kinases (Homo sapiens, UniProt P36888, D835Y); details: FLT3 D835Y, ATP Km app, ZLYTE
# off-target kinases [3] = molecular target: off-target kinases (Homo sapiens, UniProt Q13554); details: CAMK2B (CaMKII beta), ZLYTE, ATP Km app
# off-target kinases (Homo sapiens, UniProt Q13554), sequence (Q13554 whole entry): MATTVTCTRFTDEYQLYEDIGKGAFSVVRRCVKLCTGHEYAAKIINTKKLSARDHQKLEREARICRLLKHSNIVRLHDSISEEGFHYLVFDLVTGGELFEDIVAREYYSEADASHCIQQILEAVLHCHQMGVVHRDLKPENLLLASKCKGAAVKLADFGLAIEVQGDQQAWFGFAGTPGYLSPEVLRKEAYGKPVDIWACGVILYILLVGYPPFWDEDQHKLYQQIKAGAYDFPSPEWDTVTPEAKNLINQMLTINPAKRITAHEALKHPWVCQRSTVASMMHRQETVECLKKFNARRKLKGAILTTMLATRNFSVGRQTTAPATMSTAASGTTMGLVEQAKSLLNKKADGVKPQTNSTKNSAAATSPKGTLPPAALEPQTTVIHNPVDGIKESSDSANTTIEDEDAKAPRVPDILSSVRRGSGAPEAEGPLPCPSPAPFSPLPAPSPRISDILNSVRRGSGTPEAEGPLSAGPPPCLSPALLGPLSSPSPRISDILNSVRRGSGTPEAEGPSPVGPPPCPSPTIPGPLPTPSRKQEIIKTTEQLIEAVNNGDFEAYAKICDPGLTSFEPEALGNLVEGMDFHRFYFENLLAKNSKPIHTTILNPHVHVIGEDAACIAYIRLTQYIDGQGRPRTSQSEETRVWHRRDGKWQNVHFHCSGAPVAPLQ
# off-target kinases [4] = molecular target: off-target kinases (Homo sapiens, UniProt Q8N568); details: DCAMKL2 (DCK2), ZLYTE, ATP Km app
# off-target kinases (Homo sapiens, UniProt Q8N568), sequence (Q8N568 whole entry): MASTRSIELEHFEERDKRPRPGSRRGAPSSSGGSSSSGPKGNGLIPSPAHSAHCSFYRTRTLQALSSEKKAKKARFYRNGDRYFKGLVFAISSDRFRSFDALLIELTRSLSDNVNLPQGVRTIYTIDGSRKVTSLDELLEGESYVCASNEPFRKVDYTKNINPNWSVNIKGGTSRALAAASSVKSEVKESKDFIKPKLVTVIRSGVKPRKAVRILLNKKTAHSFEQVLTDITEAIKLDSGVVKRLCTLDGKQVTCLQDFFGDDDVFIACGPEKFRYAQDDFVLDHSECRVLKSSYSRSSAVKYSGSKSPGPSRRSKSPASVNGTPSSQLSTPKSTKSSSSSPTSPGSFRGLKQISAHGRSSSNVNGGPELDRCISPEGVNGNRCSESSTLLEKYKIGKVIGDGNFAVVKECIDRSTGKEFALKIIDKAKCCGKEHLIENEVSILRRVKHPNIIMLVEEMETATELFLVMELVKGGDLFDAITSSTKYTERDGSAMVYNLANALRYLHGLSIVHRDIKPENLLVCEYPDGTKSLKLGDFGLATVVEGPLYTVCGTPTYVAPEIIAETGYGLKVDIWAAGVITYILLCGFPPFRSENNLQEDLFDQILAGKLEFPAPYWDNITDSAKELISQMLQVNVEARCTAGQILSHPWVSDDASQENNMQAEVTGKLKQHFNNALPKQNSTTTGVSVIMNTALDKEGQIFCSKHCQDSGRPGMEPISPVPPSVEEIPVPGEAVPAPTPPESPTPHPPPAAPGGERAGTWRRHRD
compound,measurement,setting,value
"N#Cc1cc(-c2ncnc(Nc3ccc(N4CCN(C5COC5)CC4)cc3)n2)ccc1OC1CCOCC1 [Compound 1, 5-(4-((4-(4-(oxetan-3-yl)piperazin-1-yl)phenyl)amino)-1,3,5-triazin-2-yl)-2-((tetrahydro-2H-pyran-4-yl)oxy)benzonitrile]",inhibition,off-target kinases [1]; read-out: % Inhibition 1,33%
same,inhibition,off-target kinases [1]; read-out: % Inhibition 2,34%
same,inhibition,off-target kinases [1]; read-out: % Inhibition Avg,33%
same,inhibition,off-target kinases [2]; read-out: % Inhibition 1,83%
same,inhibition,off-target kinases [2]; read-out: % Inhibition 2,81%
same,inhibition,off-target kinases [2]; read-out: % Inhibition Avg,82%
same,inhibition,off-target kinases [3]; read-out: % Inhibition 1,11%
same,inhibition,off-target kinases [3]; read-out: % Inhibition 2,8%
same,inhibition,off-target kinases [3]; read-out: % Inhibition Avg,10%
same,inhibition,off-target kinases [4]; read-out: % Inhibition 1,11%
same,inhibition,off-target kinases [4]; read-out: % Inhibition 2,3%
same,inhibition,off-target kinases [4]; read-out: % Inhibition Avg,7%
